# Experimental data published in US7226922B2 (dated 2007).
structure (smiles),measurement,value
Cc1cnn2c(-c3cccc(-c4ccccc4C#N)c3)cnc2c1,melting point,164 to 166 °C
